Reference: patent US6800659B2, “Compounds for modulating cell proliferation” (HSC Research and Development Limited Partnership, priority 2000, dated 2004)

What was measured:
Jak2 = target: T1, Jak2 (Homo sapiens, UniProt O60674); assay: Jak2 immunoprecipitate kinase assay after preincubation of Z119 cells; assay type: cell-based; details: Z119 cells preincubated for 5 hours (FIG. 24)
T1 construct: The cells were lysed in lysis buffer and immunoprecipitated with Jak2 antibody; endogenous in cells; host or cells: Z119 Ph+ ALL cell line (immunoprecipitate after 5 h preincubation of cells with CR4)
T1 sequence (O60674 whole entry): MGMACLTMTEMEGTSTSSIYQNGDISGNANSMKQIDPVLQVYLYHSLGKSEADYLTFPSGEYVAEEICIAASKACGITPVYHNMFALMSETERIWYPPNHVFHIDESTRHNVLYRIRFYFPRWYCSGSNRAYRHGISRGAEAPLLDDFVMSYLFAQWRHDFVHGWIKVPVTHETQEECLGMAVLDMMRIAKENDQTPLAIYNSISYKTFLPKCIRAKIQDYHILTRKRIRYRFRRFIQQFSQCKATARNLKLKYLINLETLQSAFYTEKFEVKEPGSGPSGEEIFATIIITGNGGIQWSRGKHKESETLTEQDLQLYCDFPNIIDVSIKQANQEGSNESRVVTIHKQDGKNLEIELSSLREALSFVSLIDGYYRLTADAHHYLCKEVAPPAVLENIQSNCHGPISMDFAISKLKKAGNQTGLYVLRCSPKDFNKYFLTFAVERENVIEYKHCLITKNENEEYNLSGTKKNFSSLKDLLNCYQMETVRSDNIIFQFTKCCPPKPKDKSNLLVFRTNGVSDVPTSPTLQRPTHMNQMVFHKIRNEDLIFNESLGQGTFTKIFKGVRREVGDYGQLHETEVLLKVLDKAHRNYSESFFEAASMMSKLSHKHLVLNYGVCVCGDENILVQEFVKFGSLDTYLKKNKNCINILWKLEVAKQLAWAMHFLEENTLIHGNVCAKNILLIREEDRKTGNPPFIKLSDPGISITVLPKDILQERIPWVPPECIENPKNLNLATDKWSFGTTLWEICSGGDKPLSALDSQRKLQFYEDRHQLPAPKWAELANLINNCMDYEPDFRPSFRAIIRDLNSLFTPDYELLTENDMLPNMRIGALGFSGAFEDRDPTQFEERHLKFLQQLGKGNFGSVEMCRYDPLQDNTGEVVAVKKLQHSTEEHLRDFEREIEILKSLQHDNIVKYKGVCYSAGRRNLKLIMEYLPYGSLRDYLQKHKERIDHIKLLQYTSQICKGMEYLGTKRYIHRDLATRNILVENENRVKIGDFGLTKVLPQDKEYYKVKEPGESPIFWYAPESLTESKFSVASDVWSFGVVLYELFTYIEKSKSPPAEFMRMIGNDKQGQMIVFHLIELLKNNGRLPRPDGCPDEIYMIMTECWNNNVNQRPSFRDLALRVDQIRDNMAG
Procedure: Philadelphia (Ph+) ALL Line Z119 (5×10^6 Cells/point) was Preincubated for 5 Hours with Different Concentrations of CR4 and Immunoprecipitated with Jak2 Antibody
(§1) The cells were lysed in lysis buffer and immunoprecipitated with Jak2 antibody. The precipitates were washed twice with lysis buffer and once with kinase assay buffer, followed by addition of 10 μCi ^33PγATP. The reaction was stopped after 20 min by the addition of SDS-PAGE reducing sample buffer and separated on an 8-16% SDS-PAGE gel. The products were transferred onto nitrocellulose membrane and visualized by autoradiography.

Bcr-Abl = target: T2, Bcr-Abl (Homo sapiens, UniProt P00519); assay: Bcr-Abl immunoprecipitate kinase assay (33P-ATP autoradiography); assay type: biochemical; details: 1 to 10 μM
T2 construct: Philadelphia (Ph+) ALL Lines Z119 and Z181 (5×10^6 Cells/point) Were Lysed and Immunoprecipitated with Bcr-Abl Antibody; BCR (N-terminal part, natural fusion partner from the t(9;22) translocation); endogenous in cells; host or cells: Z119 and Z181 Ph+ ALL cell lines (immunoprecipitate); the other entry of the earlier key: BCR (P11274, Breakpoint cluster region protein)
T2 sequence (P00519 with tags, fused parts or gaps): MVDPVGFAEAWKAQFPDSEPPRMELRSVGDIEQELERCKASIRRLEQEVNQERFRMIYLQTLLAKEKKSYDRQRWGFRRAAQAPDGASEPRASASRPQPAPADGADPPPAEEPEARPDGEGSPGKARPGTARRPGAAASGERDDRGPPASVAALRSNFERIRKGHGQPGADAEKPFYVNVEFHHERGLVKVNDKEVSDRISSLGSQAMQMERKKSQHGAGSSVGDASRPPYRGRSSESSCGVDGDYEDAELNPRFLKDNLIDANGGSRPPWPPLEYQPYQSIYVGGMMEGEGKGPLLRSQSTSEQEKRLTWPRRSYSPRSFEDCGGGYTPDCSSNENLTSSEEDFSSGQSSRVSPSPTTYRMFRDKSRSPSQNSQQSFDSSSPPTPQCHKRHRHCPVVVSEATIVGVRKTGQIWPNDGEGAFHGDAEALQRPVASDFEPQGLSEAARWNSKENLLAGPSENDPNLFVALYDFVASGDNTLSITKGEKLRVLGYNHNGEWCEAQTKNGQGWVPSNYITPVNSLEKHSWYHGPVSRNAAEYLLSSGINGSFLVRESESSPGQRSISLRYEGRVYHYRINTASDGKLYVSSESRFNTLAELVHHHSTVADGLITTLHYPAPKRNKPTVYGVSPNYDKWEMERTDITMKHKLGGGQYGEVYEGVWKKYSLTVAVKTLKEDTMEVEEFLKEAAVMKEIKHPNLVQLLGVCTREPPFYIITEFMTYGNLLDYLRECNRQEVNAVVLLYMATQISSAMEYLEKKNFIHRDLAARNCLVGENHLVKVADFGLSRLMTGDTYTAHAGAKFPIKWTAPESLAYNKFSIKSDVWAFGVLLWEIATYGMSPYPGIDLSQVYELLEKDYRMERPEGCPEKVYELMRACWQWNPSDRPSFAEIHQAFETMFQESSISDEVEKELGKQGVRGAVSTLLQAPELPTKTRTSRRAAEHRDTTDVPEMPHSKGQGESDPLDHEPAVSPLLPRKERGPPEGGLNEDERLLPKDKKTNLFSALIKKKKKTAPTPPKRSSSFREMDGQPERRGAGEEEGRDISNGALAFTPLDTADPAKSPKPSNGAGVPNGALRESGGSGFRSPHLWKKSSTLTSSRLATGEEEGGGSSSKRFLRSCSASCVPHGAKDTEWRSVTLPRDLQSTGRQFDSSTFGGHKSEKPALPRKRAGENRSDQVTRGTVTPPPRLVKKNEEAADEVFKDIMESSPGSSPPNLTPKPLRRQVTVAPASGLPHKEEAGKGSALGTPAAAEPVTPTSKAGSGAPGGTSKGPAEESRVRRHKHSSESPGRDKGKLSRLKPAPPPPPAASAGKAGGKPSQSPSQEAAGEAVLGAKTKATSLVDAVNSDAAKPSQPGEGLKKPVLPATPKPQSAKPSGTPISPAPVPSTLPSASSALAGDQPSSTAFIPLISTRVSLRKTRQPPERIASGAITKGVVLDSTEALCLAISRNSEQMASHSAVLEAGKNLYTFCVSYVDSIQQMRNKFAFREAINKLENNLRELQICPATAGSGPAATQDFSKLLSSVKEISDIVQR
Procedure: Philadelphia (Ph+) ALL Lines Z119 and Z181 (5×10^6 Cells/point) Were Lysed and Immunoprecipitated with Bcr-Abl Antibody
as §1, with “The” for “The cells were lysed in lysis buffer and immunoprecipitated with Jak2 antibody. The”, “buffer, and resuspended in same buffer containing varying concentrations of CR4. The precipitates were incubated with the drug for 10 min at room temperature,” for “buffer,”

Ly-MN lymphoma cells = assay: Colony growth of Ly-MN lymphoma cells in methylcellulose culture; assay type: cell-based; details: colonies at 5 days (FIG. 5)
Procedure: (§2) Ly-MN cells were plated in 1 ml volumes, in the absence of exogenous growth factors, into 35 mm petri dishes (Nunc, Gibco) containing IMDM (OCl, Toronto) plus 20% human cord blood plasma in 0.9% (vol/vol) methylcellulose (Fluka, Switzerland) and the indicated concentrations of CR4. Cultures were set at 37° C., 5% CO2 in a humidified atmosphere. Colonies consisting of more than 20 cells were counted at 5 days or earlier using an inverted microscope.

[1] = tested on: Philadelphia positive acute lymphoblastic leukemia (Ph+ ALL) cells; assay: Colony growth of Philadelphia positive ALL cells in methylcellulose culture; assay type: cell-based, human
Procedure: as §2, with “Ph+ ALL cells” for “Ly-MN cells”, “containing alpha MEM (Gibco)” for “containing IMDM (OCl, Toronto)”, “plus 10% FCS (Cansera Rexdale, ON.)” for “plus 20% human cord blood plasma”, “Switzerland) with” for “Switzerland) and”, “at 12” for “at 5”
(§3) ALL cells were plated in 1 ml volumes, in the absence of exogenous growth factors, into 35 mm petri dishes (Nunc, Gibco) containing alpha MEM (Gibco) plus 20% FCS (Cansera Rexdale, ON.) in 0.9% (vol/vol) methylcellulose (Fluka, Switzerland) and the indicated concentrations of compound Cultures were set at 37° C., 5% CO2 in a humidified atmosphere Colonies consisting of more than 20 cells were counted at 12 days or earlier using an inverted microscope.
as §3, with “ON)” for “ON.)”, “0.90%” for “0.9%”, “compound.” for “compound”, “atmosphere.” for “atmosphere”
as §3, with “CR24.” for “compound”, “atmosphere.” for “atmosphere”, “9” for “12”
as §3, with “CR19.” for “compound”, “atmosphere.” for “atmosphere”, “9” for “12”

OCl-LY2 lymphoma cells = assay: In vitro purging of OCl-Ly2 lymphoma cells; assay type: cell-based; details: 5 hours exposure (FIG. 16)
Procedure: (§4) For the purging assay, the cells were resuspended in complete medium with or without CR4 as indicated and incubated at 37° C., 5% CO2 for 0-5 hours. Cells were then washed thoroughly with medium to remove CR4, resuspended and plated in 1 ml volumes at 5×10^3 cells/ml, in the absence of exogenous growth factors, into 35 mm petri dishes (Nunc, Gibco) containing IMDM (OCl, Toronto) plus 20% human cord blood plasma in 0.9% (vol/vol) methylcellulose (Fluka, Switzerland). Cultures were set at 37° C., 5% CO2 in a humidified atmosphere. Colonies consisting of more than 20 cells were counted at 5 days or earlier using an inverted microscope.

[2] = tested on: Ramos B cell Burkitt's lymphoma cells; assay: In vitro purging of Ramos B cell Burkitt's lymphoma cells; assay type: cell-based; details: 50 μM, 5 hours exposure (FIG. 18)
Procedure: as §4, with “remove the” for “remove”, “ml volumes,” for “ml volumes at 5×10^3 cells/ml,”, “containing RPMI 1640 (Gibco)” for “containing IMDM (OCl, Toronto)”, “plus 10% FCS (Cansera Rexdale, ON.)” for “plus 20% human cord blood plasma”, “at 12” for “at 5”

N#C/C(=C\C=C\c1ccc(O)c(O)c1)C(=O)NCc1ccccc1 [CR4, (E,E)-2-(benzylaminocarbonyl)-3-(3,4-dihydroxystyryl)acrylonitrile]
Jak2 kinase activity (Jak2; 6 μM): dramatically inhibited
Jak2 kinase activity (Jak2; concentrations higher than 6 μM): further blocked
Bcr-Abl kinase activity (Bcr-Abl; immunoprecipitate from Z181 ALL cell line (FIG. 23)): effectively blocked
Bcr-Abl kinase activity (Bcr-Abl; immunoprecipitate from Z199 ALL cell line (FIG. 23)): effectively blocked
inhibition of cell proliferation and survival (Ly-MN lymphoma cells; by 2.5 μM): inhibition
inhibition of cell proliferation and survival (Ly-MN lymphoma cells; nanomolar doses): significantly inhibited
wipeout of bcr-abl transformed Philadelphia positive cells ([1]; concentrations as low as 40 nM): > 90%
inhibition of Ph+ ALL cell proliferation and survival ([1]; low nanomolar doses (35-100), colonies at 12 days (FIG. 2)): significant inhibition
killing of OCl-Ly2 cells (OCl-LY2 lymphoma cells; 12.5 μM): significant killing
killing of OCl-Ly2 cells (OCl-LY2 lymphoma cells; 25-50 μM): 90%
killing of Ramos cells [2]: 70%
